Columns and labels:
[1] = target: T1, EGFR L858R/T790M/C797S (H1975-clone #25) (Homo sapiens, UniProt P00533, C797S/L858R/T790M); assay: EGFR degradation, HTRF total-EGFR assay, H1975-clone #25 (LTC); assay type: cell-based; settings: H1975-clone #25 L858R/T790M/C797S, 16 h treatment
T1 construct: expressed in transfected cells; host or cells: H1975 (clone #25), lentiviral transduction, endogenous EGFR knocked out
Excerpt: (§1) H1975-clone #28 (Del19/T790M/C797S, or abbr: DTC), H1975-clone #23 (Del19/C797S, or abbr: DC), H1975-clone #25 (L858R/T790M/C797S, or abbr: LTC) and H1975-clone #8 (L858R/C797S, or abbr: LC). EGFR-Del19/T790M/C797S, EGFR-Del19/C797S, EGFR-L858R/T790M/C797S and EGFR-L858R/C797S were stably expressed in H1975 cell lines by lentivirus-mediated over-expression, respectively. The EGFR over-expressed cells then underwent knockout, in which the EGFR targeting sgRNA was designed to only target the endogenous EGFR copies and preserve the exogenous EGFR copies. Followed by the knockout, the edited H1975 cells were seeded in 96 well plates at the concentration of 1 cell/well, cultured for about 2 weeks to allow single clones formation. The formed clones were screened by DNA sequencing and whole exon sequencing analysis for the desired edition. H1975-clone #28, H1975-clone #23, H1975-clone #25 and H1975-clone #8 were finally confirmed as homozygous Del19/T790M/C797S EGFR, Del19/C797S EGFR, L858R/T790M/C797S EGFR and L858R/C797S EGFR clones, respectively.
(§2) H1975-#25, H1975-#28, H1975-#23 and H1975-#8 cells are treated with compounds diluted in 0.2% DMSO cell culture medium on day 2, incubate for 16 h, 37° C., 5% CO2. The final concentration of compounds in all assay is start with 10 μM, 5-fold dilution, total 8 doses were included.
(§3) Total-EGFR cellular kit(64NG1PEH) were used for evaluating EGFR degradation.
(§4) After 16 h treatment, add HTRF lysis buffer to each well; seal the plate and incubate 1 hour at room temperature on a plate shaker; Once the cells are lysed, 16 μL of cell lysate are transferred to a PE 384-well HTRF detection plate; 4 μL of pre-mixed HTRF antibodies are added to each well; cover the plate with a plate sealer, spin 1000 rpm for 1 min, incubate overnight at room temperature; read on BMG PheraStar with HTRF protocol (337 nm-665 nm-620 nm).
(§5) The inhibition (degradation) percentage of the compound was calculated by the following equation:
(§6) Inhibition percentage of Compound=100−100×(Signal−low control)/(High control−low control), wherein signal=each test compound group
(§7) High control=Cell group with added DMSO and without compound, indicating microplate readings without EGFR degradation.
(§8) Imax (Dmax) is the maximum percentage of inhibition (degradation).
(§9) The IC50 (DC50) value of a compound can be obtained by fitting the following equation
(§10) Wherein, X and Y are known values, and IC50, Hillslope, Top and Bottom are the parameters obtained by fitting with software. Y is the inhibition percentage (calculated from the equation), X is the concentration of the compound; IC50 is the concentration of the compound when the 50% inhibition is reached. The smaller the IC50 value is, the stronger the inhibitory ability of the compound is. Vice versa, the higher the IC50 value is, the weaker the ability the inhibitory ability of the compound is; Hillslope represents the slope of the fitted curve, generally around 1*; Bottom represents the minimum value of the curve obtained by data fitting, which is generally 0%±20%; Top represents the maximum value of the curve obtained by data fitting, which is generally 100%±20%. The experimental data were fitted by calculating and analyzing with Dotmatics data analysis software.

[2] = target: EGFR Del19/T790M/C797S (H1975-clone #28) (Homo sapiens, UniProt P00533, T790M/C797S, form not given); assay: EGFR degradation, HTRF total-EGFR assay, H1975-clone #28 (DTC); assay type: cell-based; settings: H1975-clone #28 Del19/T790M/C797S, 16 h treatment
Excerpt: as §1, §2, §3, §4, §5, §6, §7, §8, §9, §10

T1 sequence (P00533 25-1210 T790M/C797S/L858R): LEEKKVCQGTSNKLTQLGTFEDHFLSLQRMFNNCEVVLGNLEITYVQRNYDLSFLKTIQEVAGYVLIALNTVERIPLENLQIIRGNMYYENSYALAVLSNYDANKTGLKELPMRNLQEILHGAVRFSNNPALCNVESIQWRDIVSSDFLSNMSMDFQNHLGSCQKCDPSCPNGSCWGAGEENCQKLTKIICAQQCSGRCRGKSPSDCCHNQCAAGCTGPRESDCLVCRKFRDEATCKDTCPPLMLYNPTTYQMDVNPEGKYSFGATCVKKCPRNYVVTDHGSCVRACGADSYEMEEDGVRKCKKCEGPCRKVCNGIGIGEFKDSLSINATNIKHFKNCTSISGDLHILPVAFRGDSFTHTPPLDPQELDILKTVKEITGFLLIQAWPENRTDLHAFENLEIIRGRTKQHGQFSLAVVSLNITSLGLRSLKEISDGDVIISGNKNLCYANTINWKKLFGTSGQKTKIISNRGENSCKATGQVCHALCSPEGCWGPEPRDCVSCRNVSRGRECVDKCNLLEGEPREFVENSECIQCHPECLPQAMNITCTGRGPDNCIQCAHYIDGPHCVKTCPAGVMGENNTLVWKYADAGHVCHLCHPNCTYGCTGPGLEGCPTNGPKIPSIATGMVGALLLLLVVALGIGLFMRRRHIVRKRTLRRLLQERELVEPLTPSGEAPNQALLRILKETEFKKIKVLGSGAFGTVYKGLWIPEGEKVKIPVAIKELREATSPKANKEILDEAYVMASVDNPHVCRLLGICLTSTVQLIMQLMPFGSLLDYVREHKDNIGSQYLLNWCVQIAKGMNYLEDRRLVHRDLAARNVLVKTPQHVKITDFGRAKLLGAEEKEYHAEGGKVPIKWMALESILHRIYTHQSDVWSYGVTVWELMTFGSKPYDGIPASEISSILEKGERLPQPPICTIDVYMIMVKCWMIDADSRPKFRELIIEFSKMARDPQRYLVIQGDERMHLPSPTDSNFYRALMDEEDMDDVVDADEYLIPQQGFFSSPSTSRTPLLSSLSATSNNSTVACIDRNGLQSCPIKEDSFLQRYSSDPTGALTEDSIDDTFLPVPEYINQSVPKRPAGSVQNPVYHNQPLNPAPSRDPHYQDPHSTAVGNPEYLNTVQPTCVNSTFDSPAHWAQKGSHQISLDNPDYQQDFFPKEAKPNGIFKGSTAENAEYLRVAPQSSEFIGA
Sequence of EGFR Del19/T790M/C797S (H1975-clone #28) (P00533 with tags, fused parts or gaps DEL746-750/T790M/C797S, form open): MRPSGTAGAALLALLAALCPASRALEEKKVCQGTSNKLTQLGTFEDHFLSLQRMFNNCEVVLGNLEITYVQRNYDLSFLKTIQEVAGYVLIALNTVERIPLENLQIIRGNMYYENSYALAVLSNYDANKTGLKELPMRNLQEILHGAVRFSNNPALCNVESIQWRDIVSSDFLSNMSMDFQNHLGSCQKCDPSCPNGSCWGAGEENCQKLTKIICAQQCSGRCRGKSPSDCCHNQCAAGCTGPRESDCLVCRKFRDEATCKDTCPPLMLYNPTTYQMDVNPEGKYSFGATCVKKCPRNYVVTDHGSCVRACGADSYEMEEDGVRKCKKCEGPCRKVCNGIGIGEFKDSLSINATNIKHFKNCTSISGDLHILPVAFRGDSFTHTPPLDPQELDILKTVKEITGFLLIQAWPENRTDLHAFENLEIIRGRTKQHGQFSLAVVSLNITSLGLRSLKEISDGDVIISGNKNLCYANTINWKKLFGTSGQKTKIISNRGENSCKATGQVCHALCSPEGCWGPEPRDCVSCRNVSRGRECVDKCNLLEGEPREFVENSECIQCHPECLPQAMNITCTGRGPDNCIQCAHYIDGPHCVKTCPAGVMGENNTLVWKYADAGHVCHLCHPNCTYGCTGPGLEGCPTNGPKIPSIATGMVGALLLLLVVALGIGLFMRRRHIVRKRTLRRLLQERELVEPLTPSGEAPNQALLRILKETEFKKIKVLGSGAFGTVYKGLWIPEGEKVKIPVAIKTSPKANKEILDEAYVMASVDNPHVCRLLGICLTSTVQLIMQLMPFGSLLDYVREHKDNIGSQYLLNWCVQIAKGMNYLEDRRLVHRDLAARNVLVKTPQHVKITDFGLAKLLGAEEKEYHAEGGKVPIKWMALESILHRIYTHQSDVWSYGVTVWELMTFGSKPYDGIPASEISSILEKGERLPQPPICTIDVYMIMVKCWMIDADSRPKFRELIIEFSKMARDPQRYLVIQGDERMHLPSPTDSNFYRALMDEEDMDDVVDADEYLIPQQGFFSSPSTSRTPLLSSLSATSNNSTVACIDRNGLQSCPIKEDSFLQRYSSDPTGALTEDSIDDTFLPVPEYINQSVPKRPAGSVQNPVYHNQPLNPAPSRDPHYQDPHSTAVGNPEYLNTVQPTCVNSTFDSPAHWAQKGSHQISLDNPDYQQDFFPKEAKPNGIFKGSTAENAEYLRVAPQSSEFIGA

| Compound | Degradation H1975 # 25-LTC [1] | Degradation H1975 # 28 DTC [2] |
| --- | --- | --- |
| Cc1cc2cc(n1)-c1cnn(C)c1OC[C@H]1C[C@@H](CN3/C(=N/C2=O)Nc2ccc(N4CCN(C5CCN(c6cc(F)c([C@H]7CCC(=O)NC7=O)c(F)c6)CC5)[C@@H](CO)C4)cc23)C1 [Example 31, (R)-3-(4-(4-((R)-4-((7^1s,7^3S,E)-1^1,2^6-dimethyl-3-oxo-5^2,5^3-dihydro-1^1H,5^1H-9-oxa-4-aza-5(2,1)-benzo[d]imidazola-2(2,4)-pyridina-1(4,5)-pyrazola-7(1,3)-cyclobutanacyclononaphane-5^6-yl)-2-(hydroxymethyl)piperazin-1-yl)piperidin-1-yl)-2,6-difluorophenyl)piperidine-2,6-dione] | 90.5 | 84.2 |
| Cc1cc2cc(n1)-c1cnn(C)c1OC[C@H]1C[C@@H](CN3/C(=N/C2=O)Nc2ccc(N4CCN([C@@H]5CCN(c6ccc(C7CCC(=O)NC7=O)nc6C)C[C@@H]5F)CC4)cc23)C1 (stereo partly drawn) [Example 62, 3-(5-((3S,4R)-4-(4-((7^1s,7^3S,E)-1^1,2^6-dimethyl-3-oxo-5^2,5^3-dihydro-1^1H,5^1H-9-oxa-4-aza-5(2,1)-benzo[d]imidazola-2(2,4)-pyridina-1(4,5)-pyrazola-7(1,3)-cyclobutanacyclononaphane-5^6-yl)piperazin-1-yl)-3-fluoropiperidin-1-yl)-6-methylpyridin-2-yl)piperidine-2,6-dione] | 91.5 | 89.1 |
| Cc1cc2cc(n1)-c1cnn(C)c1OC[C@H]1C[C@@H](CN3/C(=N/C2=O)Nc2ccc(N4CCC(N5CCN(c6cnc(C7CCC(=O)NC7=O)cc6C)CC5)CC4)cc23)C1 (some centres unmarked) [Example 5, 3-(5-(4-(1-((7^1s,7^3s,E)-1^1,2^6-dimethyl-3-oxo-5^2,5^3-dihydro-1^1H,5^1H-9-oxa-4-aza-5(2,1)-benzo[d]imidazola-2(2,4)-pyridina-1(4,5)-pyrazola-7(1,3)-cyclobutanacyclononaphane-5^6-yl)piperidin-4-yl)piperazin-1-yl)-4-methylpyridin-2-yl)piperidine-2,6-dione] | 92.9 | 92.2 |
| Cc1cc2cc(n1)-c1cnn(C)c1OC[C@H]1C[C@@H](CN3/C(=N/C2=O)Nc2ccc(N4CCN(C5CCN(c6cnc(C7CCC(=O)NC7=O)cc6C)CC5)CC4)cc23)C1 (some centres unmarked) [Example 40, 3-(5-(4-(4-((7^1s,7^3s,E)-1^1,2^6-dimethyl-3-oxo-5^2,5^3-dihydro-1^1H,5^1H-9-oxa-4-aza-5(2,1)-benzo[d]imidazola-2(2,4)-pyridina-1(4,5)-pyrazola-7(1,3)-cyclobutanacyclononaphane-5^6-yl)piperazin-1-yl)piperidin-1-yl)-4-methylpyridin-2-yl)piperidine-2,6-dione] | 93.6 | 91.5 |
| Cc1cc2cc(n1)-c1cnn(C)c1OC[C@H]1C[C@@H](CN3/C(=N/C2=O)Nc2ccc(N4CCN(CC5CN(c6cnc(C7CCC(=O)NC7=O)cc6C)C5)C[C@@H]4C)cc23)C1 (stereo partly drawn) [Example 37, 3-(5-(3-(((S)-4-((7^1s,7^3R,E)-1^1,2^6-dimethyl-3-oxo-5^2,5^3-dihydro-1^1H,5^1H-9-oxa-4-aza-5(2,1)-benzo[d]imidazola-2(2,4)-pyridina-1(4,5)-pyrazola-7(1,3)-cyclobutanacyclononaphane-5^6-yl)-3-methylpiperazin-1-yl)methyl)azetidin-1-yl)-4-methylpyridin-2-yl)piperidine-2,6-dione] | 80.7 | 79.4 |
| COC[C@@H]1CN(c2ccc3c(c2)N2C[C@H]4C[C@@H](COc5c(cnn5C)-c5cc(cc(C)n5)C(=O)/N=C/2N3)C4)CCN1C1CCN(c2cc(F)c([C@H]3CCC(=O)NC3=O)c(F)c2)CC1 [Example 20, (R)-3-(4-(4-((S)-4-((7^1s,7^3R,E)-1^1,2^6-dimethyl-3-oxo-5^2,5^3-dihydro-1^1H,5^1H-9-oxa-4-aza-5(2,1)-benzo[d]imidazola-2(2,4)-pyridina-1(4,5)-pyrazola-7(1,3)-cyclobutanacyclononaphane-5^6-yl)-2-(methoxymethyl)piperazin-1-yl)piperidin-1-yl)-2,6-difluorophenyl)piperidine-2,6-dione] | 92.5 | 89.8 |
| Cc1cc2cc(n1)-c1cnn(C)c1OC[C@H]1C[C@@H](CN3/C(=N/C2=O)Nc2ccc(N4CCN(C5CCN(c6ccc(C7CCC(=O)NC7=O)nc6C)CC5)C(=O)C4)cc23)C1 (some centres unmarked) [Example 26, 3-(5-(4-(4-((7^1s,7^3s,E)-1^1,2^6-dimethyl-3-oxo-5^2,5^3-dihydro-1^1H,5^1H-9-oxa-4-aza-5(2,1)-benzo[d]imidazola-2(2,4)-pyridina-1(4,5)-pyrazola-7(1,3)-cyclobutanacyclononaphane-5^6-yl)-2-oxopiperazin-1-yl)piperidin-1-yl)-6-methylpyridin-2-yl)piperidine-2,6-dione] | 92.1 | 90.8 |
| Cc1cc2cc(n1)-c1cnn(C)c1OC[C@H]1C[C@@H](CN3/C(=N/C2=O)Nc2ccc(N4C[C@H]5C[C@@H]4CN5C4CCN(c5ccc(C6CCC(=O)NC6=O)nc5C)CC4)cc23)C1 (stereo partly drawn) [Example 43, 3-(5-(4-((1R,4R)-5-((7^1s,7^3S,E)-1^1,2^6-dimethyl-3-oxo-5^2,5^3-dihydro-1^1H,5^1H-9-oxa-4-aza-5(2,1)-benzo[d]imidazola-2(2,4)-pyridina-1(4,5)-pyrazola-7(1,3)-cyclobutanacyclononaphane-5^6-yl)-2,5-diazabicyclo[2.2.1]heptan-2-yl)piperidin-1-yl)-6-methylpyridin-2-yl)piperidine-2,6-dione] | 87.1 | 75.5 |
| Cc1cc2cc(n1)-c1cnn(C)c1OC[C@H]1C[C@@H](CN3/C(=N/C2=O)Nc2ccc(N4CCN([C@@H]5CCN(c6cnc(C7CCC(=O)NC7=O)cc6C)C[C@H]5F)CC4)cc23)C1 (stereo partly drawn) [Example 138, 3-(5-((3R,4R)-4-(4-((7^1s,7^3S,E)-1^1,2^6-dimethyl-3-oxo-5^2,5^3-dihydro-1^1H,5^1H-9-oxa-4-aza-5(2,1)-benzo[d]imidazola-2(2,4)-pyridina-1(4,5)-pyrazola-7(1,3)-cyclobutanacyclononaphane-5^6-yl)piperazin-1-yl)-3-fluoropiperidin-1-yl)-4-methylpyridin-2-yl)piperidine-2,6-dione] | 88.4 | 90.9 |
| Cc1cc2cc(n1)-c1cnn(C)c1OC[C@H]1C[C@@H](CN3/C(=N/C2=O)Nc2ccc(N4CCC(N5CCN(c6ccc(C7CCC(=O)NC7=O)nc6C)CC5)CC4)cc23)C1 (some centres unmarked) [Example 28, 3-(5-(4-(1-((7^1s,7^3s,E)-1^1,2^6-dimethyl-3-oxo-5^2,5^3-dihydro-1^1H,5^1H-9-oxa-4-aza-5(2,1)-benzo[d]imidazola-2(2,4)-pyridina-1(4,5)-pyrazola-7(1,3)-cyclobutanacyclononaphane-5^6-yl)piperidin-4-yl)piperazin-1-yl)-6-methylpyridin-2-yl)piperidine-2,6-dione] | 92.1 | 79.8 |
